Measurements taken from US11896704B2, “Compounds useful for the treatment and/or care of the skin, hair, nails and/or mucous membranes” (LUBRIZOL ADVANCED MATERIALS, INC., priority 2017, dated 2024).

Legend:
Type in all cases: cell-based
JARID1A gene = JARID1A gene expression in synchronized human epidermal keratinocytes (HEKa), real time PCR arrays; conditions: 0.5 mg/ml, one experiment
Procedure: In Vitro Study of JARID1A Gene Expression in Synchronized Human Epidermal Keratinocytes from Adult (HEKa) Using Real Time PCR Arrays.
HEKa cells (Life Technologies) are seeded at 3.0×10^5 cells/well in 12-well plates (2 wells per condition) and incubated in culture medium, Keratinocyte growth medium supplemented with Mix C39016-CaCl2 solution (Promocell). For synchronization, cells were subjected to two alternative cycles of 12 hours each at 37° C. in 5% CO2 humidified air (day mode) and 33° C. in 5% CO2 humidified air (night mode). 12 hours after starting synchronization, cells are incubated with the peptides at 0.5 mg/ml or (5 μg/ml) in culture medium, depending on the toxicity effects of each peptide (non-toxic conditions are selected). Cells treated with medium alone are used as basal condition.
At the end of synchronization, cell lysates are collected at two different times: 7:30 hour (early morning point) and 11:30 hour (midday point). Briefly, cells are lysed directly in the wells, and RNA is purified following the protocol described on the RNeasy™ Mini kit (Qiagen) according to the manufacture's protocol. After RNA elution, quantification and analysis of purity of RNA samples are performed with a nanodrop (Thermo). For each sample, 3 μg of high quality RNA is retrotranscribed with iScript Advanced™ (BioRad) in a final volume of 20 μl. Complete reaction mix is incubated in a thermal cycler (Eppendorf) at 42° C. for 30 minutes, and the reaction is stopped at 85° C. for 5 minutes. Complementary DNA is amplified by qPCR in a real-time PCR thermocycler (BioRad) using SYBR Green Supermix™ (BioRad) in the 96-well plate for use with SYBR® Green (BioRad). SYBR Green binds to double-stranded DNA molecules and emits fluorescence which is quantified, and the fluorescence intensity is proportional to the amount of the product in the PCR reaction. Cycling conditions in BioRad CFX96™ instrument are: 95° C. for 3 minutes, followed by 40 cycles of denaturing at 95° C. for 5 seconds, annealing and elongation at 60° C. for 30 seconds. GAPDH (Glyceraldehyde 3-phosphate dehydrogenase), TBP (TATA box binding protein) and HRPT1 (hypoxanthine phosphoribosyltransferase 1) are used as endogenous controls. Fold change relative to the expression of the sample genes and reference genes is calculated using normalized expression (AA(Ct)) method using CFX Manager Software™ (BioRad).
Fold induction of JARID1A gene at 7:30 hour with respect to basal conditions at 7:30 hour for the samples tested are shown in Table 7. The data for fold induction represent the value of one experiment.

[1] = tested on: mitochondrial complex II (succinate-coenzyme Q reductase); assay: Mitochondrial complex II activity in human dermal fibroblasts, colorimetric assay; conditions: HDFa, 24 hours
Procedure: Measurement of Increase in Mitochondrial Complex II Activity Using an Assay Based on Colorimetric Detection.
Human Dermal Fibroblasts from adult (HDFa, Life Technologies) are seeded at a density of 750.000 cells/75 cm^2 flask (one flask per condition) in culture medium M106 with Low Serum Growth Supplement (Life Technologies). Cells are grown during 7 days at 37° C. in 5% CO2 humidified air. […]. Non treated cells incubated in culture medium alone are used as basal conditions. After 24 hours of treatment, cells are detached using trypsin and resuspended in 40 ul of Phosphate buffer saline (Sigma). Total protein concentration is measured with a Pierce BCA Protein Assay Kit (BCA Assay, Thermo Scientific) following manufacturer's protocol to adjust the final protein concentration between 2500-3000 ug/ml. Briefly, standards and samples are dispensed and Working Reagent is added to the samples. After 30 minutes of incubation at 37° C., absorbance is measured with a microplate reader (Clariostar®, BMG) at 562 nm.
Mitochondrial complex II activity is measured with Complex II enzyme activity microplate assay Kit (Abcam) according to the manufacture's protocol. This assay follows the production of ubiquinol (QH2, produced by mitochondrial complex II) coupled to the reduction of a colorimetric dye (DCPIP, 2,6-diclorophenolindophenol). In brief, 50 ul of each sample (adjusted to 2500-3000 ug/ml of total protein amount) is incubated for 2 hours. After that, wells are washed several times and incubated with Activity solution provided with the kit (composed by ubiquinone, succinate and DCPIP). For the determination of mitochondrial complex II activity, colorimetric reduction of DCPIP at Optical Density (OD) 600 nm in a kinetic reaction along 30 minutes is measured with a microplate reader (Clariostar®, BMG). Results are calculated as the rate of decrease in absorbance at OD 600 nm between two points in the linear zone over time.
[…]. These values represent the mean for at least three independent assays.

[2] = tested on: Phenion Full-Thickness Skin models; assay: Hydration level in synchronized human full-thickness skin models; conditions: 0.5 mg/ml, 48 hours of treatment, one assay
Procedure: Measurement of Hydration Level in Synchronized Human Full-Thickness Skin Models.
Immediately after arrival, the Phenion® Full-Thickness Skin models (HENKEL) are placed in Petri dishes (5 skin models per condition) according to the supplier's instructions in ALI medium (HENKEL). After 72 hours incubation at 37° C., 5% CO2, a synchronization protocol is initialized. For this purpose, skin models are subjected to two alternative cycles of 12 hours each at 37° C. in 5% CO2 humidified air (day mode) and 33° C. in 5% CO2 humidified air (night mode). At the beginning of the synchronization, pre-treatment measurement of hydration at 7:30 hours is tested in skin models. Hydration measurements of the epidermis are performed with DPM 9003 BT™ (NOVA® Technology Corporation) and with MoistureMeter SC™ (Delphin). For pre-treatment measurements, skin model's surface is washed with 5 ml of Phosphate Buffered Saline (PBS, Sigma). […]
The results in Table 13 show the mean of the percentage of hydration levels at 7:30 hours after 48 hours of treatment relative to hydration levels in basal conditions. […] These values are calculated for one assay. […]
The results in Table 14 represent the mean of the percentage of hydration levels at 7:30 hours after 48 hours of treatment relative to hydration levels in basal conditions at the same time. […] These values are calculated for one assay. […]

Substance: H-Phe-Trp-Met-Lys-Arg-Lys-Arg-Val-Pro-NH2 (H-FWMKRKRVP-NH2) [PEP-1]
- Fold induction with respect to Basal condition at 7:30h (%) (JARID1A gene): 212.39%
- Percentage of mitochondrial complex II activity relative to basal condition (%) ([1]; 0.1 mg/mL): 166.00%
- Percentage of mitochondrial complex II activity relative to basal condition (%) ([1]; 0.5 mg/mL): 142.12%
- Percentage of mitochondrial complex II activity relative to basal condition (%) ([1]; 1 mg/mL): 133.00%
- Hydration level (%) ([2]; 7:30 h, relative to basal conditions 7:30 h, MoistureMeter SC): 110.1%
- Hydration level at 7:30 hours (%) ([2]; relative to basal conditions, DPM9003 BT): 131.6%
